Results on 12 compounds are retold here after ChEMBL document CHEMBL1201862, “PubChem BioAssay data set” (2004).

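Five compound concentrations were applied to cells in 96-well plates for 48 hours; endpoints were derived by simple linear interpolation of the resulting dose-response curve. GI50: concentration for 50% inhibition of growth.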 The source made the active and inactive calls. Rule as the data show it: active = GI50 up to about 1.1 µM and inactive = higher.

Among the test systems are SF-539; DU-145; HL-60; M14; LOX IMVI; MOLT-4; NCI-H23; 786-0; CCRF-CEM; UO-31; KM12; U-251; SF-268; HOP-92; UACC-257; CAKI-1; OVCAR-3; SK-MEL-2.
Holding throughout (test): NCI anticancer screen, dose series, 48 h

Consider `CN1c2ccccc2C(=O)NC12CCN(CC1COc3ccccc3O1)CC2` (stereo unspecified), for which the GI50 in the assay with SF-539 is 36.4 µM (inactive); with DU-145, 61 µM (inactive); in the assay with HL-60 it was 25.4 µM (inactive); with M14, 27.8 µM (inactive); in the assay on LOX IMVI it was 45.1 µM (inactive); with MOLT-4 it was 23.1 µM (inactive). Further, the GI50 was 45.8 µM (inactive) with NCI-H23; 69.7 µM (inactive) in the assay with 786-0; 36.1 µM (inactive) in the assay on CCRF-CEM; 16.9 µM (inactive) with UO-31; 32.6 µM (inactive) in the assay with KM12; 40.2 µM (inactive) in the assay with U-251. The GI50 in the assay with SF-268 was > 100 µM (inactive); with HOP-92, 14 µM (inactive); with UACC-257, 22 µM (inactive).

`CCCCOC(=O)NC(Nc1ccc(S(=O)(=O)Nc2ccc(OC)nn2)cc1)(C(F)(F)F)C(F)(F)F`: the GI50 with SF-539, with DU-145, in the assay with HL-60, in the assay on CAKI-1, with M14 and with LOX IMVI was > 100 µM (inactive) each time. In addition, the GI50 with MOLT-4, in the assay with NCI-H23, with OVCAR-3, with 786-0, with CCRF-CEM and in the assay on UO-31 was > 100 µM (inactive) each time. The GI50 was > 100 µM (inactive) with KM12; > 100 µM (inactive) in the assay on U-251; > 100 µM (inactive) in the assay with SF-268; 78.2 µM (inactive) in the assay with HOP-92; > 100 µM (inactive) in the assay with UACC-257.

`CN(N=O)C(=O)Nc1c[nH]c(=O)[nH]c1=O`: the GI50 in the assay on SF-539, in the assay on DU-145, in the assay on SK-MEL-2, in the assay on HL-60, in the assay with CAKI-1 and in the assay with M14 was > 100 µM (inactive) each time. Moreover, the GI50 with LOX IMVI, with MOLT-4, in the assay on NCI-H23, with OVCAR-3, with 786-0 and with CCRF-CEM was > 100 µM (inactive) throughout. The GI50 in the assay on UO-31, in the assay on KM12, in the assay with U-251, with HOP-92 and with UACC-257 was > 100 µM (inactive) each time.

Consider `Cc1cc(=O)nc(Sc2ccc([N+](=O)[O-])cc2[N+](=O)[O-])[nH]1`, for which the GI50 is 17.2 µM (inactive) in the assay on DU-145; 20.6 µM (inactive) with SK-MEL-2; 3.33 µM (inactive) in the assay with HL-60; 15.1 µM (inactive) in the assay with CAKI-1; 16.4 µM (inactive) in the assay with M14; 2.81 µM (inactive) in the assay with LOX IMVI. Also, the GI50 with MOLT-4 is 7.59 µM (inactive); in the assay with NCI-H23, 18.3 µM (inactive); in the assay with OVCAR-3 it was 17 µM (inactive); with 786-0, 16.7 µM (inactive); in the assay with CCRF-CEM, 0.822 µM (active); in the assay with UO-31, 17 µM (inactive). Moreover, the GI50 in the assay with KM12 is 22.2 µM (inactive); with U-251 it was 20.7 µM (inactive); in the assay with SF-268 it was 24.4 µM (inactive); in the assay on HOP-92, 6.64 µM (inactive); in the assay on UACC-257, 21.2 µM (inactive).

With `CN1C(=O)C(CCO)(C(C)(C)C)c2ccccc21` (stereo unspecified), the GI50 in the assay on DU-145, with SK-MEL-2, in the assay with HL-60, in the assay with CAKI-1, with M14 and in the assay on LOX IMVI was > 100 µM (inactive) throughout. The GI50 in the assay with MOLT-4, with NCI-H23, in the assay with OVCAR-3, in the assay with 786-0, with CCRF-CEM and with UO-31 was > 100 µM (inactive) in each case. The GI50 with KM12, in the assay with U-251, in the assay with SF-268, in the assay with HOP-92 and in the assay on UACC-257 was > 100 µM (inactive) each time.

For the compound `O=C(CCC(=O)c1ccsc1)c1ccsc1`, the GI50 with SF-539, in the assay on DU-145, with SK-MEL-2, in the assay on HL-60, with CAKI-1 and with M14 was > 100 µM (inactive) each time. The GI50 with LOX IMVI, in the assay on MOLT-4, with NCI-H23, in the assay on OVCAR-3, in the assay on 786-0 and with UO-31 was > 100 µM (inactive) in each case. Further, the GI50 with KM12, in the assay with U-251, in the assay on SF-268, in the assay on HOP-92 and in the assay on UACC-257 was > 100 µM (inactive) in each case.

Regarding `CCCCCCCCCC/C=C/CC(=O)SCCNC(=O)CCNC(=O)[C@@H](O)C(C)(C)COP(=O)(O)OP(=O)(O)OCC1OC(n2cnc3c(N)ncnc32)C(O)C1OP(=O)(O)O` (stereo partly specified), the GI50 in the assay with SF-539, with DU-145, in the assay on HL-60, in the assay with CAKI-1, in the assay with M14 and in the assay with LOX IMVI was > 10 µM (inactive) each time. Moreover, the GI50 in the assay with MOLT-4, with NCI-H23, in the assay on OVCAR-3, in the assay on 786-0, in the assay with CCRF-CEM and in the assay on KM12 was > 10 µM (inactive) each time. Besides, the GI50 in the assay with U-251, in the assay with SF-268, with HOP-92 and in the assay with UACC-257 was > 10 µM (inactive) in each case.

On to `c1sc(NC2=NCCO2)c2c1CCCC2`, for which the GI50 in the assay on SF-539, in the assay on DU-145, in the assay on SK-MEL-2, in the assay on HL-60, in the assay with CAKI-1 and in the assay with M14 was > 100 µM (inactive) each time. The GI50 in the assay with LOX IMVI is > 100 µM (inactive); in the assay with MOLT-4, 85.5 µM (inactive); in the assay on NCI-H23, > 100 µM (inactive); with OVCAR-3, > 100 µM (inactive); in the assay on 786-0, > 100 µM (inactive); with CCRF-CEM, > 100 µM (inactive). The GI50 with UO-31, in the assay on KM12, with U-251, with HOP-92 and with UACC-257 was > 100 µM (inactive) in each case.

With `Cc1ccc2c(c1)OC1Nc3ccccc3C1=C2O` (stereo unspecified), the GI50 was 20.1 µM (inactive) in the assay with SF-539; 25.5 µM (inactive) with DU-145; 16.9 µM (inactive) in the assay on SK-MEL-2; 16.2 µM (inactive) in the assay on HL-60; 23.2 µM (inactive) in the assay on CAKI-1; 21.5 µM (inactive) with M14. The GI50 was 23.8 µM (inactive) in the assay with LOX IMVI; 32.1 µM (inactive) with MOLT-4; 23.7 µM (inactive) in the assay with NCI-H23; 3.86 µM (inactive) in the assay with OVCAR-3; 20.1 µM (inactive) with 786-0; 21.2 µM (inactive) with UO-31. Moreover, the GI50 with KM12 was 26.4 µM (inactive); with U-251, 20.4 µM (inactive); in the assay on SF-268, 40 µM (inactive); with HOP-92, 38.9 µM (inactive); in the assay on UACC-257, 22.2 µM (inactive).

Regarding `CC[C@@H]1CSC(/C=C/C2OC3OC(C)(C)OC3C3OC(C)(C)OC23)=N1` (stereo partly specified), the GI50 with SF-539 is 4.84 µM (inactive); in the assay with DU-145 it was 2.27 µM (inactive); in the assay on SK-MEL-2, 14.1 µM (inactive); with HL-60, 2.34 µM (inactive); with CAKI-1 it was 11.1 µM (inactive); with M14 it was 10 µM (inactive). Also, the GI50 was 6.53 µM (inactive) with LOX IMVI; 4.54 µM (inactive) in the assay on MOLT-4; 5.05 µM (inactive) in the assay with NCI-H23; 4.97 µM (inactive) in the assay on OVCAR-3; 3.98 µM (inactive) in the assay on 786-0; 10.8 µM (inactive) in the assay with UO-31. In addition, the GI50 in the assay on KM12 was 13.6 µM (inactive); in the assay on U-251, 13.6 µM (inactive); in the assay with SF-268 it was 6.03 µM (inactive); with HOP-92, 3.7 µM (inactive); in the assay on UACC-257, 10.1 µM (inactive).

In the case of `CCOC(=O)C1=C(C)C2C=C(c3cccs3)CC(c3ccc(Cl)cc3)=C2OC1=O` (stereo unspecified), the GI50 is 29.9 µM (inactive) with DU-145; > 100 µM (inactive) in the assay on SK-MEL-2; 4.69 µM (inactive) in the assay on HL-60; 57.8 µM (inactive) with CAKI-1; 58.3 µM (inactive) in the assay on M14; 16.9 µM (inactive) in the assay with LOX IMVI. Besides, the GI50 was 6.07 µM (inactive) in the assay on MOLT-4; 71.1 µM (inactive) in the assay on NCI-H23; 24.7 µM (inactive) in the assay with OVCAR-3; 20.6 µM (inactive) in the assay with 786-0; 17.3 µM (inactive) in the assay on CCRF-CEM; 13.3 µM (inactive) with UO-31. The GI50 is 15.2 µM (inactive) in the assay on KM12; 33.3 µM (inactive) in the assay with U-251; 97.1 µM (inactive) with SF-268; > 100 µM (inactive) in the assay on HOP-92; 17.7 µM (inactive) in the assay on UACC-257.

For `CC(c1ccccc1)n1c2ccccc2c2c(N)ncnc21` (stereo unspecified), the GI50 in the assay on SF-539 is 17.1 µM (inactive); in the assay on DU-145, 18.6 µM (inactive); in the assay with SK-MEL-2, 23.7 µM (inactive); in the assay on HL-60, 23.9 µM (inactive); with CAKI-1, 16.1 µM (inactive); with M14, 18.8 µM (inactive). Besides, the GI50 in the assay with LOX IMVI is 17.5 µM (inactive); in the assay with MOLT-4, 23 µM (inactive); in the assay on NCI-H23, 20.4 µM (inactive); in the assay on OVCAR-3, 16.2 µM (inactive); in the assay with 786-0, 14.9 µM (inactive); with CCRF-CEM, 27.8 µM (inactive). The GI50 was 9.16 µM (inactive) in the assay with UO-31; 16.7 µM (inactive) in the assay with U-251; 21.1 µM (inactive) with SF-268; 13.6 µM (inactive) in the assay with HOP-92; 17.2 µM (inactive) in the assay on UACC-257.
